This is an account of results in ChEMBL document CHEMBL5325421, “Discovery of novel sulfonamide chromone-oxime derivatives as potent indoleamine 2,3-dioxygenase 1 inhibitors” (Eur J Med Chem, 2023).

For assay [1], the system named is SW480. The assay is described as follows: cells. The following applies: Homo sapiens, SW480, 48 h.
In assay [2] the target is T1, Indoleamine 2,3-dioxygenase 1 (Homo sapiens, UniProt P14902). Kind of assay: Inhibition of IDO1 in IFN-gamma treated human HeLa cells incubated for 48 hrs by absorbance based analysis. The class given is cell-based.
For assay [3], the system named is HeLa. Kind of assay: cells. The following applies: Homo sapiens, 48 h.
The subject of assay [4] is A549. Kind of assay: cells. The following applies: Homo sapiens, A549, 48 h.
In assay [5] the target is T1, Indoleamine 2,3-dioxygenase 1. Kind of assay: Inhibition of human recombinant IDO1 measured after 60 mins by fluorescence based analysis.
Assay [6] has as its system HCT-116. The assay is described as follows: cells. Particulars: Homo sapiens, HCT-116, 48 h.

T1 sequence (P14902 whole entry): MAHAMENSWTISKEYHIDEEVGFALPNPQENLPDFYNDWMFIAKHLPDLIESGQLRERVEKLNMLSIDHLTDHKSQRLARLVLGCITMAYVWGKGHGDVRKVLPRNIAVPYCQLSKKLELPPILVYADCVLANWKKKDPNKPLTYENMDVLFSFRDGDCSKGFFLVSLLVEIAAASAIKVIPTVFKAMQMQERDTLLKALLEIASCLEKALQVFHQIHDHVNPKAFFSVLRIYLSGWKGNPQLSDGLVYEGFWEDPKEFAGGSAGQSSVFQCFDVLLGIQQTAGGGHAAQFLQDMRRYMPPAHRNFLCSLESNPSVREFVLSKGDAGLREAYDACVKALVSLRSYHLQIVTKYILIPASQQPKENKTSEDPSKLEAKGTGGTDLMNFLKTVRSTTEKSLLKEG

As to `COc1ccc2/c(=N/O)cc(C(=O)N3CCN(S(=O)(=O)c4cccc(F)c4)CC3)oc2c1`, the IC50 (in general, the midpoint of a concentration-inhibition curve) was more than 50 µM in assay [1]; 4.13 µM in assay [2]; 42.8 µM in assay [3]; more than 50 µM in assay [4]; 2.38 µM in assay [5]; more than 50 µM in assay [6].
As to `COc1ccc2/c(=N/O)cc(C(=O)N3CCN(S(=O)(=O)c4ccc(Cl)cc4)CC3)oc2c1`, the 50% inhibitory concentration (IC50) in assay [1] was 11.6 µM; in assay [2], 7.78 µM; in assay [3] it was more than 50 µM; in assay [4], more than 50 µM; in assay [5] it was 7.07 µM; in assay [6], 42 µM.
Regarding `NS(=O)(=O)NCCNc1nonc1/C(=N/O)Nc1ccc(F)c(Br)c1` [EPACADOSTAT], the IC50 in assay [1], in assay [3], in assay [4] and in assay [6] was more than 50 µM throughout.
Regarding `Cc1ccc2/c(=N/O)cc(C(=O)N3CCN(S(=O)(=O)c4cccc([N+](=O)[O-])c4)CC3)oc2c1`, the IC50 in assay [1] was 17.1 µM; in assay [2] it was 8.84 µM; in assay [3], 29.4 µM; in assay [4] it was more than 50 µM; in assay [5], 7.52 µM; in assay [6] it was 6.44 µM.
For the compound `Cc1ccc2/c(=N/O)cc(C(=O)N3CCN(S(=O)(=O)c4ccc(Br)cc4)CC3)oc2c1`, the IC50 in assay [1] was more than 50 µM; in assay [2], more than 10 µM; in assay [3] it was more than 50 µM; in assay [4] it was 46.1 µM; in assay [5] it was more than 10 µM; in assay [6], 28.3 µM.
Regarding `COc1ccc(S(=O)(=O)N2CCN(C(=O)c3c/c(=N\O)c4ccc(C)cc4o3)CC2)cc1OC`, the IC50 in assay [1] is more than 50 µM; in assay [2], 7.8 µM; in assay [3], more than 50 µM; in assay [4], more than 50 µM; in assay [5] it was 6.23 µM; in assay [6] it was more than 50 µM.
Take `Cc1ccc2/c(=N/O)cc(C(=O)N3CCN(S(=O)(=O)c4ccc(Cl)cc4)CC3)oc2c1`: the IC50 was more than 50 µM in assay [1]; more than 10 µM in assay [2]; more than 50 µM in assay [3]; more than 50 µM in assay [4]; more than 10 µM in assay [5]; 15.2 µM in assay [6].
As to `COc1ccc2/c(=N/O)cc(C(=O)N3CCN(S(=O)(=O)c4ccc(C)cc4)CC3)oc2c1`, the IC50 in assay [1] is 33.1 µM; in assay [2] it was more than 10 µM; in assay [3] it was 20.1 µM; in assay [4], 36.9 µM; in assay [5], more than 10 µM; in assay [6] it was 31.1 µM.
As to `COc1ccc2/c(=N/O)cc(C(=O)N3CCN(S(=O)(=O)c4cccc(Br)c4)CC3)oc2c1`, the IC50 was more than 50 µM in assay [1]; 9.81 µM in assay [2]; 44.8 µM in assay [3]; more than 50 µM in assay [4]; 6.14 µM in assay [5]; more than 50 µM in assay [6].
For `COc1ccc2/c(=N/O)cc(C(=O)N3CCN(S(=O)(=O)c4cccc([N+](=O)[O-])c4)CC3)oc2c1`, the IC50 in assay [1] is more than 50 µM; in assay [2] it was 4.46 µM; in assay [3], more than 50 µM; in assay [4], more than 50 µM; in assay [5], 1.95 µM; in assay [6] it was 19.4 µM.
With `COc1ccc2/c(=N/O)cc(C(=O)N3CCN(S(=O)(=O)c4ccccc4C(F)(F)F)CC3)oc2c1`, the IC50 in assay [1] was more than 50 µM; in assay [2] it was more than 10 µM; in assay [3], 38 µM; in assay [4] it was more than 50 µM; in assay [5], 8.85 µM; in assay [6], more than 50 µM.
For `COc1ccc(S(=O)(=O)N2CCN(C(=O)c3c/c(=N\O)c4ccc(C)cc4o3)CC2)cc1`, the IC50 in assay [1] is 17.6 µM; in assay [2], more than 10 µM; in assay [3], more than 50 µM; in assay [4], 41.4 µM; in assay [5], 9.45 µM; in assay [6], 1.48 µM.
As for `Cc1ccc2/c(=N/O)cc(C(=O)N3CCN(S(=O)(=O)c4ccc(F)c(F)c4)CC3)oc2c1`, the IC50 in assay [1] is 27.6 µM; in assay [2] it was 5.75 µM; in assay [3], more than 50 µM; in assay [4], more than 50 µM; in assay [5], 5.59 µM; in assay [6], 4.18 µM.
